Columns and labels:
Airway cells = assay: Permeability of airway cells to Imipenem on Airway chip; format: cell-based; settings: at lower concentrations
Experimental: More specifically, in one embodiment of an Airway on-chip, duplicate chips are infected with PA 5919 WT or PA 5890 Mutant as described herein. Then, Imipenem is added to apical and basolateral fluids (cell media) for treatment with Imipenem at 50, 100 and 500 μg/ml for 24 hours with at least one chip without Imipenem. At 24 h post treatment, wash cells 3× to remove the test drug, i.e. antibiotic Imipenem. Cells lysed with 1% Triton for 10 minutes on chip, then the lyste is collected from the chip's channels. Lysates are serially diluted for CFU quantification. N=2
Assay readouts: Viability of extracellular bacteria (apical sampling). Viability of intracellular bacteria (cell lysis and sampling). Two-way ANOVA with Dunnett's post-test **<0.05, **<0.001 (compared to untreated).

[1] = test system: Lamina Propria Immune Cells; assay: Steroidal treatment of lamina propria immune cells on Intestine-Chip; format: cell-based, human; settings: 10 μM (10X clinically relevant dosage); before and after challenge with PAM2CSK4; ulcerative colitis patients
Airway On-Chip cells = assay: TUNEL apoptosis staining on Airway On-Chip; format: cell-based; settings: 3 μM for 3 h at 37° C., positive control
Experimental: One embodiment of an Airway On-Chip is infected as described above for 2 hours and then treated 50 μg/ml tetracycline for 24 h (top and bottom channels under flow) for 24 h in order to limit bacterial replication (to avoid over-replication and cell lifting). Using this methodology, we performed longer infections on an airway chip and avoided cell death at 24 h. At 24 h, chips are fixed with 4% paraformaldehyde for 15 minutes and subsequently permeabilized with 0.25% triton in PBS. Apoptosis staining is performed following the Click-iT™ Plus TUNEL Assay for In Situ Apoptosis Detection, Alexa Fluor 647 assay: Click-iT™ Plus TUNEL Assay, Thermo Fisher Scientific Inc., 6 November 2017.
The TUNEL assay is based on the incorporation of modified dUTPs by the enzyme terminal deoxynucleotidyl transferase (TdT) at the 3′-OH ends of fragmented DNA, a hallmark as well as the ultimate determinate of apoptosis. Click-iT™ Plus TUNEL assay with the Alexa Fluor™ 647 dye is utilized to detect the fragment DNA (purple), nuclei are labelled with DAPI.
Staurosporin, a prototypical ATP-competitive kinase inhibitor, is used as a positive control in this assay. […] As an additional positive control, chips are treated with 1 unit of DNAse I for 30 minutes at room temperature to induce TUNEL positive DNA strand breaks.

Caco-2 Intestine-Chip = assay: Bacterial colonization, attachment and titration on Intestine-Chip; format: cell-based, human; settings: SEM images of the Intestine-Chip
Text: Top Channel: Caco-2. Day 1: Connect to flow. Day 3: Inoculation and Readouts: Imaging; Permeability; Bacterium Titer; etc. Day 8: Inflammatory Challenge. Readouts: Imaging; Permeability; Cytokines; Bacterium Titer; etc. Day 8 +4 hrs: Readouts: Imaging; Permeability; Cytokines; Bacterium Titer; etc. Day 8 +14 hrs: Readouts: Permeability; Cytokines; Effluent Titer; etc. Day 8 +14 hrs: Collect Endpoints: RNA; Immunofluorescence; Adherent Titer; etc.
Barrier function is an indicator of epithelial cell health in the intestine. […] Each bacteria strain was added (inoculated) on chip at a concentration of 1×10^6 mL^−1.
FIG. 44A Bacterial Titration (counts mL^−1) at Day 3 and Day 4 compared to adherent counts at Day 4.
Bacterial Titration. Viable, aerotolerant bifidobacterial strains colonized the Caco-2 Intestine-Chip and could be detected in plate Titers.

C[C@@H](O)[C@H]1C(=O)N2C(C(=O)O)=C(SCCN=CN)C[C@H]12 [Imipenem]
permeability of airway cells to the drug (Airway cells): impermeable

C[C@]12C=CC(=O)C=C1CC[C@@H]1[C@@H]2C(=O)C[C@@]2(C)[C@H]1CC[C@]2(O)C(=O)CO [Prednisone]
inflammatory responses [1]: suppresses inflammatory responses

CN[C@@H]1C[C@H]2O[C@@](C)([C@@H]1OC)n1c3ccccc3c3c4c(c5c6ccccc6n2c5c31)C(=O)NC4 [staurosporin, Staurosporin]
apoptotic cell numbers (TUNEL) (Airway On-Chip cells): increased apoptotic cell numbers

Lactobacillus rhamnosus strain GG [LGG]
attachment and biofilm formation (Caco-2 Intestine-Chip): evidence of LGG attachment and biofilm formation

— US20210115406A1, “HOST-BIOME INTERACTIONS” (EMULATE, INC., priority 2018, published 2021)
